In patent US20230303575A1, “FGFR AND MUTATION INHIBITOR THEREOF, PREPARATION METHOD THEREFOR AND USE THEREOF” (Abbisko Therapeutics Co., Ltd., priority 2020, published 2023):

What was measured:
Type in all cases: cell-based
FGFR3 V555M = molecular target: T1, FGFR3 V555M (Homo sapiens, UniProt P22607, V555M); assay: Cell proliferation assay for FGFR3 V555M in BaF3; conditions: BaF3 cells expressing FGFR3 V555M fusion, 48 hrs, CellTiter Glo
T1 construct: P41212 (Transcription factor ETV6)
Method: For the compounds of the Examples of the present invention, cell strains of TEL-FGFR3 WT intracellular kinase domain fusion protein or intracellular domain fusion protein containing FGFR3 V555M or FGFR3 N540K mutation were stably expressed in Baf cells by transfection and were used to determine the cell proliferation effect of BaF3-Tel-FGFR3 WT. FGFR3 V555M or FGFR3 N540K. The specific test process was as follows: • 1) The cell suspension was plated into a 96-well plate containing growth medium (DMEM containing 1% Glutamax, 10% FBS and 1% Pen/Strep) at 2000-4000 cells/90 μL/per well, and then the mixture was incubated overnight at 37° C. and 5% CO2. • 2) 10 μL of growth medium containing a 10-fold stock solution of test compound was added to the cell culture (9 dose points, 3× serial dilution, starting from 1 μM, finally 0.3% DMSO). • 3) The mixture was incubated at 37° C. and 5% CO2 for 48 hrs. • 4) 50 μL of CellTiter Glo (CTG) reagent was added to the cell-containing 96-well plate, and the plate was then incubated at room temperature for 10 min. • 5) Relative light units (RLUs) were measured on a microplate reader with a luminescence detection module. RLU values were normalized to % survival, and concentration-response curves were plotted using Prism to calculate IC50 (nM).

FGFR2 N549K = molecular target: T2, FGFR2 N549K (Homo sapiens, UniProt P21802, N549K); assay: Cell proliferation assay for Tel-FGFR2 N549K in BaF3; conditions: BaF3 cells expressing FGFR2 N549K fusion, 48 hrs, CellTiter Glo
T2 construct: P41212 (Transcription factor ETV6)
Method: (§1) By transfection, cell strains of the intracellular kinase domain fusion protein of TEL-FGFR2 WT or the intracellular domain fusion proteins containing FGFR2 V564, V564F, V564L, N549K and K659M mutations were stably expressed in Baf cells. On day 1, the cell suspension was plated into a 96-well plate containing growth medium (DMEM containing 1% Glutamax, 10% FBS and 1% Pen/Strep) at 2000-4000 cells/90 μL/per well, and then the mixture was incubated overnight at 37° C. and 5% CO2. On day 2, 10 μL of growth medium containing a 10-fold stock solution of test compound was added to the cell culture (9 dose points, 3× serial dilution, starting from 1 μM, finally 0.3% DMSO). After incubation at 37° C. and 5% CO2 for 48 hrs, 50 μL of CellTiter Glo (CTG) reagent was added to the cell-containing 96-well plate on day 3, and the plate was then incubated at room temperature for 10 min. Then relative light units (RLUs) were measured on a microplate reader with a luminescence detection module. RLU values were normalized to % survival, and concentration-response curves were plotted using Prism to calculate IC50 (nM).

FGFR2 V564F = molecular target: T3, FGFR2 V564F (Homo sapiens, UniProt P21802, V564F); assay: Cell proliferation assay for Tel-FGFR2 V564F in BaF3; conditions: BaF3 cells expressing FGFR2 V564F fusion, 48 hrs, CellTiter Glo
T3 construct: P41212 (Transcription factor ETV6)
Method: as §1

FGFR2 V564L = molecular target: T4, FGFR2 V564L (Homo sapiens, UniProt P21802, V564L); assay: Cell proliferation assay for Tel-FGFR2 V564L in BaF3; conditions: BaF3 cells expressing FGFR2 V564L fusion, 48 hrs, CellTiter Glo
T4 construct: P41212 (Transcription factor ETV6)
Method: as §1

T1 sequence (P22607 472-761 V555M limits assumed): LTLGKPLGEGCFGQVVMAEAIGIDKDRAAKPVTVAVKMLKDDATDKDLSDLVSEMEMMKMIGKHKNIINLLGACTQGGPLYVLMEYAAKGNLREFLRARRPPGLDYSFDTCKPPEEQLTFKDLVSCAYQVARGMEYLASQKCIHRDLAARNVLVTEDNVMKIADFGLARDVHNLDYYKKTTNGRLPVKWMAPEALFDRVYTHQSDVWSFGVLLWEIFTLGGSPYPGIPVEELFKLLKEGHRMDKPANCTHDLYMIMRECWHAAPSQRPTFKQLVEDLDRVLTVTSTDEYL
T3 sequence (P21802 481-770 V564F limits assumed): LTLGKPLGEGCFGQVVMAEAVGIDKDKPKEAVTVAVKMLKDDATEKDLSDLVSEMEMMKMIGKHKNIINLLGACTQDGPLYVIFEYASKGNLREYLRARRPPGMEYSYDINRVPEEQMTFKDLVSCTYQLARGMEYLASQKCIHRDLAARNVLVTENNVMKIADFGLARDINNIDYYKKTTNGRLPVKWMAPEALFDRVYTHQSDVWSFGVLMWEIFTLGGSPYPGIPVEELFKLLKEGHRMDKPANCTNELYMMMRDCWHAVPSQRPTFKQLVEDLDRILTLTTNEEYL
T2 sequence (P21802 481-770 N549K limits assumed): as the sequence (P21802 481-770 V564F limits assumed) above, with N69K, F84V counted along it
T4 sequence (P21802 481-770 V564L limits assumed): as the sequence (P21802 481-770 V564F limits assumed) above, with F84L counted along it

IC50 (FGFR3 V555M) | IC50 (FGFR2 N549K) | IC50 (FGFR2 V564F) | IC50 (FGFR2 V564L) | Structure (SMILES)
5 to 50 nM | 0.5 to 5 nM | ≤ 0.5 nM | 0.5 to 5 nM | C=CC(=O)N1CC[C@H](n2cc(C#Cc3ccc4oc(C)nc4c3)c3c(N)ncnc32)C1 [Example 2, (S)-1-(3-(4-amino-5-((2-methylbenzo[d]oxazol-5-yl)ethynyl)-7H-pyrrolo[2,3-d]pyrimidin-7-yl)pyrrolidin-1-yl)prop-2-en-1-one]
5 to 50 nM | 0.5 to 5 nM | 0.5 to 5 nM | 0.5 to 5 nM | C=CC(=O)N1CC[C@H](n2cc(C#Cc3ccc4oc(CC)nc4c3)c3c(N)ncnc32)C1 [Example 3, (S)-1-(3-(4-amino-5-((2-ethylbenzo[d]oxazol-5-yl)ethynyl)-7H-pyrrolo[2,3-d]pyrimidin-7-yl)pyrrolidin-1-yl)prop-2-en-1-one]
– | – | 0.5 to 5 nM | – | C=CC(=O)N1CC[C@H](n2cc(C#Cc3ccc4oc(C(C)C)nc4c3)c3c(N)ncnc32)C1 [Example 4, (S)-1-(3-(4-amino-5-((2-isopropylbenzo[d]oxazol-5-yl)ethynyl)-7H-pyrrolo[2,3-d]pyrimidin-7-yl)pyrrolidin-1-yl)prop-2-en-1-one]
– | – | 0.5 to 5 nM | – | C=CC(=O)N1CC[C@H](n2cc(C#Cc3ccc4oc(C5CCC5)nc4c3)c3c(N)ncnc32)C1 [Example 5, (S)-1-(3-(4-amino-5-((2-cyclobutylbenzo[d]oxazol-5-yl)ethynyl)-7H-pyrrolo [2,3-d]pyrimidin-7-yl)pyrrolidin-1-yl)prop-2-en-1-one]
5 to 50 nM | – | 0.5 to 5 nM | – | C=CC(=O)N1CC[C@H](n2nc(C#Cc3cc4nc(NC)oc4cc3F)c3c(N)ncnc32)C1 [Example 29, (S)-1-(3-(4-amino-3-((6-fluoro-2-(methylamino)benzo[d]oxazol-5-yl)ethynyl)-1H-pyrazolo[3,4-d]pyrimidin-1-yl)pyrrolidin-1-yl) prop-2-en-1-one]
5 to 50 nM | – | 0.5 to 5 nM | – | C=CC(=O)N1CC[C@H](n2nc(C#Cc3cc4nc(NCC)oc4cc3F)c3c(N)ncnc32)C1 [Example 30, (S)-1-(3-(4-amino-3-((2-(ethylamino)-6-fluorobenzo [d]oxazol-5-yl)ethynyl)-1H-pyrazolo[3,4-d]pyrimidin-1-yl)pyrrolidin-1-yl) prop-2-en-1-one]
5 to 50 nM | – | 0.5 to 5 nM | – | C=CC(=O)N1CC[C@H](n2nc(C#Cc3cc4nc(N(C)C)oc4cc3F)c3c(N)ncnc32)C1 [Example 31, (S)-1-(3-(4-amino-3-((2-(dimethylamino)-6-fluoro-benzo[d]oxazol-5-yl)ethynyl)-1H-pyrazolo[3,4-d]pyrimidin-1-yl)pyrrolidin-1-yl)prop-2-en-1-one]
50 to 500 nM | – | 0.5 to 5 nM | – | C=CC(=O)N1CC[C@H](n2nc(C#Cc3cc4nc(NC5CC5)oc4cc3F)c3c(N)ncnc32)C1 [Example 33, (S)-1-(3-(4-amino-3-((2-(cyclopropylamino)-6-fluorobenzo[d]oxazol-5-yl)ethynyl)-1H-pyrazolo[3,4-d]pyrimidin-1-yl)pyrrolidin-1-yl)prop-2-en-1-one]
0.5 to 5 nM | – | 0.5 to 5 nM | – | C=CC(=O)N1CC[C@H](n2nc(C#Cc3cc4nc(N5CCC5)oc4cc3F)c3c(N)ncnc32)C1 [Example 34, (S)-1-(3-(4-amino-3-((2-(azetidin-1-yl)-6-fluorobenzo [d]oxazol-5-yl)ethynyl)-1H-pyrazolo[3,4-d]pyrimidin-1-yl)pyrrolidin-1-yl) prop-2-en-1-one]
0.5 to 5 nM | – | ≤ 0.5 nM | – | C=CC(=O)N1CC[C@H](n2nc(C#Cc3cc4nc(C5CC5)oc4cc3F)c3c(N)ncnc32)C1 [Example 35, (S)-1-(3-(4-amino-3-((2-cyclopropyl-6-fluorobenzo [d]oxazol-5-yl)ethynyl)-1H-pyrazolo[3,4-d]pyrimidin-1-yl)pyrrolidin-1-yl) prop-2-en-1-one]
5 to 50 nM | – | 0.5 to 5 nM | – | C=CC(=O)N1CC[C@H](n2nc(C#Cc3cc4nc(C5CCC5)oc4cc3F)c3c(N)ncnc32)C1 [Example 38, (S)-1-(3-(4-amino-3-((2-cyclobutyl-6-fluorobenzo [d]oxazol-5-yl)ethynyl)-1 H-pyrazolo[3,4-d]pyrimidin-1-yl)pyrrolidin-1-yl) prop-2-en-1-one]
– | – | 0.5 to 5 nM | – | C=CC(=O)N1CC[C@H](n2nc(C#Cc3ccc4oc(C5(C)CC5)nc4c3)c3c(N)ncnc32)C1 [Example 39, (S)-1-(3-(4-amino-3-((2-(1-methylcyclopropyl)benzo [d]oxazol-5-yl)ethynyl)-1H-pyrazolo[3,4-d]pyrimidin-1-yl)pyrrolidin-1-yl) prop-2-en-1-one]
– | – | 0.5 to 5 nM | – | C=CC(=O)N1CC[C@H](n2cc(C#Cc3ccc4sc(C5CC5)nc4c3)c3c(N)ncnc32)C1 [Example 43, (S)-1-(3-(4-amino-5-((2-cyclopropylbenzo[d]thiazol-5-yl)ethynyl)-7H-pyrrolo [2,3-d]pyrimidin-7-yl)pyrrolidin-1-yl)prop-2-en-1-one]
5 to 50 nM | – | ≤ 0.5 nM | – | C=CC(=O)N1CC[C@H](n2cc(C#Cc3cc4nc(C)sc4cc3F)c3c(N)ncnc32)C1 [Example 47, (S)-1-(3-(4-amino-5-((6-fluoro-2-methylbenzo[d]thiazol-5-yl)ethynyl)-7H-pyrrolo[2,3-d]pyrimidin-7-yl)pyrrolidin-1-yl)prop-2-en-1-one]
5 to 50 nM | – | 0.5 to 5 nM | – | C=CC(=O)N1CC[C@H](n2cc(C#Cc3cc4nc(C(F)F)sc4cc3F)c3c(N)ncnc32)C1 [Example 50, (S)-1-(3-(4-amino-5-((2-(difluoromethyl)-6-fluoro-benzo[d]thiazol-5-yl)ethynyl)-7H-pyrrolo[2,3-d]pyrimidin-7-yl)pyrrolidin-1-yl) prop-2-en-1-one]
– | – | 0.5 to 5 nM | – | C=CC(=O)N1CC[C@H](n2nc(C#Cc3cc4nc(C(F)F)sc4cc3F)c3c(N)ncnc32)C1 [Example 60, (S)-1-(3-(4-amino-3-((2-(difluoromethyl)-6-fluoro-benzo[d]thiazol-5-yl)ethynyl)-1H-pyrazolo[3,4-d]pyrimidin-1-yl)pyrrolidin-1-yl)prop-2-en-1-one]
5 to 50 nM | – | 0.5 to 5 nM | – | C=CC(=O)N1CCC(c2cc(C#Cc3ccc4oc(C5CC5)nc4c3)c3c(N)ncnn23)C1 (centres unmarked) [Example 63, 1-(3-(4-amino-5-((2-cyclo-propylbenzo[d]oxazol-5-yl)ethynyl)pyrrolo[2,1-f][1,2,4]triazin-7-yl)pyrrolidin-1-yl)prop-2-en-1-one]
0.5 to 5 nM | – | ≤ 0.5 nM | – | C=CC(=O)N1CC[C@H](n2cc(C#Cc3cc4nc(C5CC5)oc4cc3F)c3c(N)ncnc32)C1 [Example 65, (S)-1-(3-(4-amino-5-((2-cyclopropyl-6-fluorobenzo [d]oxazol-5-yl)ethynyl)-7H-pyrrolo[2,3-d]pyrimidin-7-yl)pyrrolidin-1-yl)prop-2-en-1-one]
– | – | 0.5 to 5 nM | – | C=CC(=O)N1CCC(c2cc(C#Cc3ccc4sc(C)nc4c3)c3c(N)ncnn23)C1 (centres unmarked) [Example 70, 1-(3-(4-amino-5-((2-methyl-benzo[d]thiazol-5-yl)ethynyl)pyrrolo[2,1-f][1,2,4]triazin-7-yl)pyrrolidin-1-yl) prop-2-en-1-one]
50 to 500 nM | – | 5 to 50 nM | – | C=CC(=O)N1CC[C@H](n2cc(C#Cc3cc4nc(C(F)(F)F)oc4cc3F)c3c(N)ncnc32)C1 [Example 72, (S)-1-(3-(4-amino-5-((6-fluoro-2-(trifluoromethyl)benzo[d]oxazol-5-yl)ethynyl)-7H-pyrrolo[2,3-d]pyrimidin-7-yl)pyrrolidin-1-yl) prop-2-en-1-one]
0.5 to 5 nM | – | ≤ 0.5 nM | – | C=CC(=O)N1CC[C@H](n2cc(C#Cc3c(F)cc4oc(N5CCC5)nc4c3F)c3c(N)ncnc32)C1 [Example 73, (S)-1-(3-(4-amino-5-((2-(azetidin-1-yl)-4,6-difluoro-benzo[d]oxazol-5-yl)ethynyl)-7H-pyrrolo[2,3-d]pyrimidin-7-yl)pyrrolidin-1-yl) prop-2-en-1-one]
50 to 500 nM | – | – | – | C=CC(=O)N1CC[C@H](n2cc(C#Cc3ccc4oc(C(F)(F)F)nc4c3)c3c(N)ncnc32)C1 [Example 76, (S)-1-(3-(4-amino-5-((2-(trifluoromethyl)benzo[d]oxazol-5-yl)ethynyl)-7H-pyrrolo[2,3-d]pyrimidin-7-yl)pyrrolidin-1-yl)prop-2-en-1-one]
